Experimental data published in patent US12582616B2, “Molecular targets for modulation of dissociative and associative states” (The Board of Trustees of the Leland Stanford Junior …, priority 2020, dated 2026).
Entries after “also recorded” stand apart in the source; their conditions may differ.

Experiments:
mice [1] = test: Hot plate test; details: for dissociation-like behavior (sensory-detection vs affective responses), hot plate: other drug classes
Description: Hot Plate Test: Mice were placed on the hot plate (Bioseb), which was set to 55° C. and surrounded by a clear circular perimeter. Mouse activity was recorded using two cameras from different angles. The experiment ended when the mouse jumped to escape or 90 seconds had elapsed. Care was taken to clean and dry the hot plate apparatus between animals. For optogenetic experiments, mice were connected to patch cords and then returned to a holding cage. Illumination began 30 seconds before mice were placed on the hot plate.

[2] = tested on: retrosplenial cortex (RSP); test: Widefield imaging of cortical activity in GCaMP6s mice; details: i.p. injection, ketamine 50 mg/kg
Source text: We recorded multiregional neuronal activity by leveraging widefield microscopy, a cleared skull preparation, and atlas registration in GCaMP6s-expressing mice (FIGS. 1A-1C)^6,8,15.
As described^8, mice were anesthetized with isoflurane, the scalp was removed, the skull cleaned and dried, and a custom head-plate was cemented to contacts over the cerebellum and in front of the olfactory bulb. The skull was then covered in a thin layer of cyanoacrylate glue (Apollo 2000, Cyberbond), clear dental acrylic (Ortho-Jet, Lang Dental), and clear nail polish (Electron Microscopy Services). […] (0.1 mg/kg) was injected subcutaneously for pain management. […] Imaging was performed on a custom-built fluorescence microscope designed for high light collection efficiency and large field of view. […] Alternating 410 nm and 488 nm illumination for non-Ca^2+ dependent artifact removal was controlled using a microcontroller (Arduino) slaved to the frame output trigger of the camera.
Analysis was performed using custom MATLAB (MathWorks) scripts. Widefield imaging videos were registered to a 2D top-projection atlas generated from the annotated Allen Brain Atlas volume, version CCFv2, in MATLAB (MathWorks), using an affine transformation computed from four manually selected control points. Each video was DF/F normalized, using the median for each pixel over the entire time series as F. The 410 nm channel was then temporally smoothed using a moving average (width=400 ms). The smoothed 410 nm DF/F signal for each pixel was regressed onto the 488 nm DF/F signal for the corresponding pixel, and the regression coefficients were used to scale the 410 nm channel to the 488 nm channel. This scaled 410 nm DF/F signal was then subtracted from the 488 nm DF/F signal to produce a normalized signal for each pixel. For quantification, activity traces were extracted from points centered in five cortical regions (visual, somatosensory, parietal, motor, retrosplenial) on the left hemisphere of the brain. The video data was Gaussian smoothed spatially (radius=2 pixels).
Each trace (corresponding to either a fiber photometry signal, a cellular two-photon signal, a widefield regional centroid, a widefield pixel, an sEEG trace, or a smoothed spike rate Neuropixels trace) was z-scored, and the power spectral density (PSD) was then estimated using Welch's method (pwelch( ) in Matlab), with a window size of 10*fs (15*fs for human sEEG) where fs is the sampling rate of the signal. The average band power within a specified band (i.e. 1-3 Hz) was then computed by integrating the PSD estimate (bandpower in Matlab). […] Unless otherwise indicated, the PSD was computed across the time window from minutes 10 to 11 post-injection.

mice [3] = test: Open field test; format: in vivo, mouse; details: 5 min session, compared with saline
Source text: Open Field Test: Mice were placed in an evenly illuminated 50 cm×50 cm open field test box. Mouse position was captured using a webcam and Viewer software (Biobserve).

mice [4] = test: Tail suspension test; format: in vivo, mouse; details: PCP 5 mg/kg
Description: Tail Suspension Test: Mouse activity was recorded using a 60 Hz web camera. Struggling activity was quantified for minutes 2-10. […] Illumination began 30 seconds before tails were secured with tape and suspended from the beam. Mice were excluded if they climbed on their own tails.

Compound: (+)-Lysergic acid diethylamide (+)-tartrate (2:1) [LSD]
- responsivity to salient stimuli (time-to-jump, rearing/socialization) (mice [1]; LSD 0.3 mg/kg): tended to increase responsivity to salient stimuli
- dissociation-like behavior (sensory-detection vs affective responses), hot plate (mice [1]): disrupted neither sensory-detection nor affective responses
- 1-3 Hz oscillation localized to retrosplenial cortex (RSP), widefield imaging [2]: did not elicit oscillation
- open-field locomotion velocity (mice [3]): reducing locomotion in the stimulus-poor open-field; also recorded: decreased velocity

Compound: c1ccc(C2(N3CCCCC3)CCCCC2)cc1 [PCP, phencyclidine]
- longer-timescale escape and social behaviors (mice [4]): inhibited longer-timescale escape and social behaviors
- dissociation-like behavior (sensory-detection vs affective responses), hot plate (mice [1]): recapitulated ketamine's behavioral disconnection between sensory-detection and affective responses
- 1-3 Hz oscillation localized to retrosplenial cortex (RSP), widefield imaging [2]: induced the RSP-localized oscillation
- open-field locomotion velocity (mice [3]): locomotion velocity was unchanged

Compound: CC12CC3CC(C)(C1)CC(N)(C3)C2 [memantine]
- 1-3 Hz oscillation localized to retrosplenial cortex (RSP), widefield imaging [2]: did not elicit oscillation

Compound: CC(C)c1cccc(C(C)C)c1O [propofol]
- 1-3 Hz oscillation localized to retrosplenial cortex (RSP), widefield imaging [2]: elicited waves of cortical activity without RSP restriction

Compound: CN1C(=O)CN=C(c2ccccc2)c2cc(Cl)ccc21 [diazepam]
- dissociation-like behavior (sensory-detection vs affective responses), hot plate (mice [1]): did not recapitulate dissociative-like behavior
- 1-3 Hz oscillation localized to retrosplenial cortex (RSP), widefield imaging [2]: Neither the GABAergic sedative diazepam nor the centrally-acting opioid-analgesic buprenorphine elicited the rhythm
- open-field locomotion velocity (mice [3]): decreased velocity

Compound: Cc1cccc([C@H](C)c2cnc[nH]2)c1C [dexmedetomidine]
- 1-3 Hz oscillation localized to retrosplenial cortex (RSP), widefield imaging [2]: elicited waves of cortical activity without RSP restriction

Compound: C[C@]12N[C@H](Cc3ccccc31)c1ccccc12 [MK-801]
- 1-3 Hz oscillation localized to retrosplenial cortex (RSP), widefield imaging [2]: induced the RSP-localized oscillation
